{
  "source": "patent US6395787B1",
  "about": "“Ocular hypotensive lipids” (Allergan Sales, Inc., priority 2000, dated 2002)",
  "key": {"[1]": {"system": "human platelets (DP-, TP- and IP-receptor types)", "assay": "Human platelet aggregation and inhibition of ADP-induced aggregation", "type": "cell-based", "description": "Prostanoid activity at the DP-, TP- and IP-receptor types was determined by an ability to cause aggregation (TP-receptor activity) or to inhibit ADP-induced aggregation of human platelets in vitro (DP- and IP-receptor activity). Fresh whole blood was obtained from consenting healthy human volunteers and mixed with acid citrate-dextrose (ACD). The blood was centrifuged at 1000 rpm for 15-20 minutes to obtain platelet rich plasma (PRP). 4.5 μl of prostanoid or vehicle was added to 450 μl of PRP and incubated for 2 minutes at 37° C. in a Payton aggregometer and observed for any aggregatory activity. 2×10^−5 M ADP (final concentration) was then added to induce full aggregation. Inhibition of aggregation was calculated as the percentage difference between aggregation evoked by 2×10^−5 M ADP in the absence and presence of drug. Aggregatory activity was calculated as the percent aggregation induced by the prostanoid relative to the aggregation induced by 2×10^−5 M ADP. Standard aggregatory responses to 2×10^−5 M ADP alone were performed at the beginning and end of each experiment."}, "human FP receptor": {"target": "human FP receptor (Homo sapiens, UniProt P43088)", "sequence (P43088 whole entry)": "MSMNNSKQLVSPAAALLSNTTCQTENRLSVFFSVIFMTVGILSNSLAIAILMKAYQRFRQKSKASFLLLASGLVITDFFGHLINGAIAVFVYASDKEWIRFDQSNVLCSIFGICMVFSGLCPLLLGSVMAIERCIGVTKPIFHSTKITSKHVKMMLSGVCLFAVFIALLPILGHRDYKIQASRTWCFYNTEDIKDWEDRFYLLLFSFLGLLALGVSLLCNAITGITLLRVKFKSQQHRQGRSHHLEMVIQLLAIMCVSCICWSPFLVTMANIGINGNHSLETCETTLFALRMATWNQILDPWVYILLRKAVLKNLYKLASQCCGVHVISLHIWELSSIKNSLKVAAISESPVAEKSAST", "assay": "Ca2+ signal in CRL 1497 cells", "type": "cell-based", "parameters": "endogenous in cells; host or cells: CRL 1497 human dermal fibroblasts; Δ[Ca^2+]i mean χ ± SEM: unit not given here", "details": "for Δ[Ca^2+]i mean χ ± SEM: n = 4", "description": "Human CRL 1497 cells were plated in culture flasks and fed Dulbecco's modified Eagle's medium (DMEM) containing 10% fetal calf serum, 2 mM 1-glutamine, and 0.05 mg/ml gentacin (all purchased from Gibco, Grand Island, N.Y.). Cell cultures were maintained in a humidified atmosphere of 95% air, 5% CO2 and grown to confluency. Cells were removed from the culture flasks by approximately 1 min treatment with trypsin 0.05%/0.53 mM EDTA in Hanks Balanced Salt Solution (HBSS, Gibco, Grand Island, N.Y.) at 37° C. Proteolytic activity was arrested by adding 5 ml of 10% fetal bovine serum in DMEM. The cells were consecutively washed in Hank's BSS and medium containing 140 mM NaCl, […], 1 mM MgCl2, 1.5 mM CaCl2, 10 mM HEPES: TRIS, 5 mM glucose, 5 mM Na pyruvate, 0.1% bovine serum albumin at pH 7.4: Centrifugation for the washes was performed for 15 minutes at 200 g at room temperature. Cells were counted, resuspended in the above medium and incubated with 2×10^−6 M Fura 2/acetoxymethyl ester in a shaking water bath for 30 minutes at 37° C. The cells were subsequently washed in medium as above and resuspended at a concentration of 2×10^6 cells ml^−1. Aliquots of 0.5 ml cell suspension were then added to autocap microtubes to provide 10^6 cells per experimental determination of intracellular free Ca^2+ concentration ([Ca^2+]i).\nFluorescence was measured in a Perkin-Elmer LS-5 fluorescence spectrophotometer at excitation and emission wavelengths of 340 and 492 nm, respectively, with both slits at 10 nm. For each experimental determination 10^6 cells were washed (200×g for 5 min) and suspended in a 2 ml cuvette with buffer containing 120 mM NaCl, 6 mM KCl, 1 mM MgSO4, 1.5 mM CaCl2, 20 mM HEPES, 1 mg ml^−1 glucose and 1 mg ml^−1 Na pyruvate. Stirring was achieved by an overhead-mounted, paddle stirrer with the temperature maintained at 37° C. The cells were lysed with digitonin (10 μl of 100 mg ml^−1 DMSO) to obtain fmax. EGTA (100 mM) and sufficient 10N NaOH to adjust the pH to 8.5 were then successively added to obtain fmin."}, "[2]": {"target": "recombinant feline FP receptor (Felis catus, UniProt A0ABI7XJ69)", "sequence (A0ABI7XJ69 entry or part of it)": "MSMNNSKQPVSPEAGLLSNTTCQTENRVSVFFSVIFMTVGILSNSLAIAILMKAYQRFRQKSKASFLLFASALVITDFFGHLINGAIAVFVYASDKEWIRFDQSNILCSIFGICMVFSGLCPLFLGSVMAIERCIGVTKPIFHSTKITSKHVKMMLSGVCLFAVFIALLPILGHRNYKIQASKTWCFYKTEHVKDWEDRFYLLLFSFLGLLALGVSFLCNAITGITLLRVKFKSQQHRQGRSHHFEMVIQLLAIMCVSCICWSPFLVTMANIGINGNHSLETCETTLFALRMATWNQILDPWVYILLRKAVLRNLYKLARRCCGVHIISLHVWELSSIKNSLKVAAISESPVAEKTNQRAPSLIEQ", "assay": "Total inositol phosphate accumulation, HEK-293 cells with recombinant feline FP receptor", "type": "cell-based, cat", "details": "read-out: E.C.50, total inositol phosphate accumulation", "description": "Ten days after transfection, hygromycin B resistant clones were individually selected and transferred to a separate well on a 24 well plate. At confluence each clone was transferred to one well of a 6 well plate, and then expanded in a 10 cm dish. Cells were maintained under continuous hygromycin selection until use. The stable cat FP receptor transfectants were similarly prepared using […]. Again cells were grown to 50-60% confluency on 10 cm plates and the plasmid pCEP4, incorporating cDNA inserts for the feline FP receptor, was transfected using lipofectin. Hygromycin B selection was started 48 hr post-transfection. Eight days after transfection, hygromycin B resistant clones were selected and transferred to 24 well plates. Ca^2+ signaling studies on recombinant cat and human FP receptors were performed in an identical manner to that described for the CRL 1497 cell studies.\nReceptor-mediated phosphoinositide (PI) hydrolysis was determined by measuring the accumulation of total inositol phosphates (IP) in cells preincubated with ^3H-myoinositol. Stable cell lines of HEK 293 cells expressing human or cat FP receptors were plated in 10 cm dishes (10^6 cells per dish in DMEM with 10% FBS). […] The eluate was mixed with 10 ml Aquasol scintillation fluid (Packard Instrument Co.) and total [^3H] inositol phosphates was determined by a liquid scintillation counter."}},
  "data": [
    {"compound": "CCCCC[C@H](O)/C=C/[C@@H]1[C@@H](C/C=C\\CCCC(=O)NCCO)[C@@H](O)C[C@H]1O", "note": "[PGF2α 1-ethanolamide, (5Z,8α,9α,11α,13E,15S)-9,11,15-trihydroxy-N-(2-hydroxyethyL)prosta-5,13-dien-1-amide]", "values": [
      {"measurement": "effect on platelets (aggregation; inhibition of ADP induced aggregation)", "setting": "[1]", "value": "No effect"},
      {"measurement": "Δ[Ca^2+]i mean χ ± SEM", "setting": "human FP receptor; 10^−5 M, CRL 1497 cells", "value": "97.9 ± 10.8"},
      {"measurement": "Δ[Ca^2+]i mean χ ± SEM", "setting": "human FP receptor; 10^−6 M, CRL 1497 cells", "value": "45.8 ± 11.5"},
      {"measurement": "Δ[Ca^2+]i mean χ ± SEM", "setting": "human FP receptor; 10^−7 M, CRL 1497 cells", "value": "13.5 ± 3.9"},
      {"measurement": "Δ[Ca^2+]i mean χ ± SEM", "setting": "human FP receptor; 10^−8 M, CRL 1497 cells", "value": "3.4 ± 1.5"},
      {"measurement": "difference in potency at the human FP receptor vs PGF2α", "setting": "human FP receptor; CRL 1497 cells, Ca2+ signal", "value": "about a one hundred fold difference in potency"},
      {"measurement": "EC50", "setting": "human FP receptor; CRL 1497 human dermal fibroblasts, read-out: E.C.50, Ca2+ signal", "value": 1590, "unit": "nM"},
      {"measurement": "EC50", "setting": "[2]", "value": 524, "unit": "nM"}
    ]}
  ]
}
